In patent publication US20230181532A1, “GRANULES FOR 3D PRINTING TECHNOLOGY” (BOARD OF REGENTS, THE UNIVERSITY OF TEXAS SYSTEM, priority 2020, published 2023):

Columns and labels:
Type in all cases: physicochemical
Angle of repose (AOR) = test: Angle of repose (AOR)
Excerpt: A 100 mm circular test platform together with a digital height gauge having a range of 0-300 mm and an accuracy of 0.03 mm was used (BEP2, Copley Scientific Limited. Nottingham, UK). […] The surplus powder was collected in a tray below the test platform. The nozzle (10 mm nozzle for the angle of repose) of the funnel was placed 75 mm above the test platform, and the nozzle was secured using the shutter mechanism. 100 g of the sample (drug and granules) were placed in the funnel, and the shutter was moved gently but rapidly to allow the powder to flow. The powder formed a conical on the test platform and started overflowing. […] The height of the powder cone was measured using the digital height gauge and the diameter of the cone was 100 (diameter of the platform was 100 mm). Equation 2 was used to calculate the angle of repose.

[1] = Flow through orifice powder flow test
Excerpt: A United States Pharmacopoeia (USP) compliant flowability tester, with funnel attachments (BEP2, Copley Scientific Limited, Nottingham, UK) was used for the flow-through orifice study. The purpose of this test was to stimulate the flow in a hopper or other mass transfer situations (Taylor et al., 2000). The funnel was placed 40 mm above the collecting beaker, and the beaker was placed on a measuring scale. The nozzle was fixed onto the funnel and the shutter mechanism was used to prevent any premature flow from the funnel. 100 g of the sample powder was transferred to the funnel and the test was started 30 s after the transfer (this facilitated floccule formation). The weight was recorded for the samples with respect to the time in triplicates (n=3) for each nozzle diameter (10, 15, and 25 mm) and samples (PA 12 (reference), granules, and drug). Time versus weight curves were constructed for the processed granules and the properties were compared with PA 12.

[2] = In vitro release testing, pH shift dissolution (USP type II paddle); details: pH 2, 2 h
Procedure: The in vitro release testing was performed using a pH shift protocol to simulate physiological conditions and contrary to the USP dissolution medium i.e., pH 7.2 phosphate buffer. […] Moreover, because of its pKa and hydrophobicity, and the amorphous nature of the drug in the samples of interest, it was important to expose it to acidic conditions before exposing it to relatively basic conditions. […] If the drug exists in its amorphous form in the formulation, it is crucial to study its stability in the acidic pH as in the physiological environment the formulation will be exposed to it first.
For this pH-shift dissolution test, the above-mentioned samples (n=3) were introduced into 750 mL of HCl-KCl buffer (pH 2, 0.1 M, hydrochloric acid-potassium chloride buffer) for 2 h using a 900 mL vessel. 150 mL of phosphate buffer (pH6.8, 0.1 M) was then introduced to each vessel shifting the pH from 2 to 6.8, with a final volume of 900 mL. […] The dissolution of the samples was tested at the final pH of 6.8 for an additional 2 h. The test was conducted using a Paddle type assembly (USP type II). […] Acetonitrile was used to dilute (2-fold) the drawn samples and the previously described method of analysis was used to quantify the API in the samples.

flow classification as per the AOR reference table (Angle of repose (AOR)): very poor
angle of repose θ value (Angle of repose (AOR); 10 mm nozzle, 100 g sample, n=3): 58.2±0.06 °
flow through orifice observation [1]: no flow throughout the test
Structure (SMILES): COc1ccc2c(c1)c(CC(=O)O)c(C)n2C(=O)c1ccc(Cl)cc1 [IND, Indomethacin]
dissolution behaviour in acidic environment [2]: did not show any improvement in their solubility
